Data taken from patent US10765114B2, “4-amino-6-(pyridyl and 2-substitutedphenyl)-picolinates and 6-amino-2-(pyridyl and 2-substitutedphenyl)-pyrimidine-4-carboxylates and their use as herbicides” (Dow AgroSciences LLC, priority 2013, dated 2020).
Read-outs that look alike come from different tables or passages of the source.

Assays:
[1] = test system: Key Broadleaf Weed and Crop Species; assay: Post-Emergent Test II (Table 5); type: in vivo; conditions: post-emergence, 336 h; for pest or weed control at 70 g/ha: application rate 70 (kg ai/ha; footnote: g ai/ha); for pest or weed control at 140 g/ha: application rate 140 (kg ai/ha; footnote: g ai/ha)
Procedure, shortened: (§1)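 Plants at first or second true-leaf stage, grown 7-21 days in greenhouse, were sprayed post-emergence at 187 L/ha with compounds in acetone/DMSO/water/crop oil/surfactant mixture at the high rate and ½× to 1/16× dilutions. Injury scored visually after 14 days, 0 (none) to 100% (complete kill), versus untreated plants.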

[2] = test system: Key Grass and Sedge Weeds as well as Grass Crops; assay: Post-Emergent Test II (Table 6); type: in vivo; conditions: post-emergence, 336 h, 14 days after application; for pest or weed control at 70 g/ha: 70 g ai/ha; for pest or weed control at 140 g/ha: 140 g ai/ha
Procedure, shortened: as §1

[3] = Abutilon theophrasti, ABUTH: velvetleaf (Abutilon theophrasti), read-out: Visual Growth Reduction (%) 14 Days After Application ABUTH
[4] = Amaranthus retroflexus, AMARE: redroot pigweed (Amaranthus retroflexus), read-out: Visual Growth Reduction (%) 14 Days After Application AMARE
[5] = Brassica napus, BRSSS: oilseed rape, canola (Brassica napus), read-out: Visual Growth Reduction (%) 14 Days After Application BRSSS
[6] = Chenopodium album, CHEAL: lambsquarters (Chenopodium album), read-out: Visual Growth Reduction (%) 14 Days After Application CHEAL
[7] = Euphorbia heterophylla, EPHHL: wild poinsettia (Euphorbia heterophylla), read-out: Visual Growth Reduction (%) 14 Days After Application EPHHL
[8] = Helianthus annuus, HELAN: sunflower (Helianthus annuus), read-out: Visual Growth Reduction (%) 14 Days After Application HELAN
[9] = Viola tricolor, VIOTR: wild pansy (Viola tricolor), read-out: Visual Growth Reduction (%) 14 Days After Application VIOTR
[10] = CYPSS, read-out: Visual Growth Reduction (%) 14 Days After Application CYPSS
[11] = DIGSA: crabgrass (Digitaria sanguinalis), read-out: Visual Growth Reduction (%) 14 Days After Application DIGSA
[12] = ECHSS, read-out: Visual Growth Reduction (%) 14 Days After Application ECHSS
[13] = ORYSS (crop), read-out: Visual Growth Reduction (%) 14 Days After Application ORYSS
[14] = SETFA: giant foxtail (Setaria faberi), read-out: Visual Growth Reduction (%) 14 Days After Application SETFA
[15] = SORVU: grain sorghum (Sorghum vulgare), read-out: Visual Growth Reduction (%) 14 Days After Application SORVU
[16] = TRZSS (crop), read-out: Visual Growth Reduction (%) 14 Days After Application TRZSS
[17] = ZEAMX: maize, corn (Zea mays), read-out: Visual Growth Reduction (%) 14 Days After Application ZEAMX

Compound	pest or weed control at 70 g/ha [1, 3]	pest or weed control at 140 g/ha [1, 3]	pest or weed control at 70 g/ha [1, 4]	pest or weed control at 140 g/ha [1, 4]	pest or weed control at 70 g/ha [1, 5]	pest or weed control at 140 g/ha [1, 5]	pest or weed control at 70 g/ha [1, 6]	pest or weed control at 140 g/ha [1, 6]	pest or weed control at 70 g/ha [1, 7]	pest or weed control at 140 g/ha [1, 7]	pest or weed control at 70 g/ha [1, 8]	pest or weed control at 140 g/ha [1, 8]	pest or weed control at 70 g/ha [1, 9]	pest or weed control at 140 g/ha [1, 9]	pest or weed control at 70 g/ha [2, 10]	pest or weed control at 140 g/ha [2, 10]	pest or weed control at 70 g/ha [2, 11]	pest or weed control at 140 g/ha [2, 11]	pest or weed control at 70 g/ha [2, 12]	pest or weed control at 140 g/ha [2, 12]	other results
COC(=O)c1nc(-c2ccc(OC(F)F)nc2)c(F)c(N)c1Cl [Compound 71]	85 to 94%	85 to 94%	0 to 29%	0 to 29%	30 to 44%	45 to 59%	85 to 94%	85 to 94%	95 to 100%	95 to 100%	85 to 94%	85 to 94%	0 to 29%	0 to 29%	0 to 29%	45 to 59%	75 to 84%	60 to 74%	60 to 74%	75 to 84%	pest or weed control at 70 g/ha [2, 13]: 0 to 29%; pest or weed control at 140 g/ha [2, 13]: 0 to 29%; pest or weed control at 70 g/ha [2, 14]: 75 to 84%; pest or weed control at 140 g/ha [2, 14]: 85 to 94%; pest or weed control at 70 g/ha [2, 15]: 60 to 74%; pest or weed control at 140 g/ha [2, 15]: 75 to 84%; pest or weed control at 70 g/ha [2, 16]: 45 to 59%; pest or weed control at 140 g/ha [2, 16]: 45 to 59%; pest or weed control at 70 g/ha [2, 17]: 0 to 29%; pest or weed control at 140 g/ha [2, 17]: 60 to 74%; melting point: 134 to 136 °C
Cc1c(-c2cc(N)c(Cl)c(C(=O)O)n2)ccc(F)c1F [Compound 87]	95 to 100%	95 to 100%	95 to 100%	95 to 100%	85 to 94%	85 to 94%	95 to 100%	95 to 100%	0 to 29%	0 to 29%	85 to 94%	95 to 100%	0 to 29%	0 to 29%	0 to 29%	0 to 29%	0 to 29%	0 to 29%	0 to 29%	0 to 29%	pest or weed control at 70 g/ha [2, 13]: 0 to 29%; pest or weed control at 140 g/ha [2, 13]: 0 to 29%; pest or weed control at 70 g/ha [2, 14]: 0 to 29%; pest or weed control at 140 g/ha [2, 14]: 0 to 29%; pest or weed control at 70 g/ha [2, 15]: 0 to 29%; pest or weed control at 140 g/ha [2, 15]: 0 to 29%; pest or weed control at 70 g/ha [2, 16]: 0 to 29%; pest or weed control at 140 g/ha [2, 16]: 0 to 29%; pest or weed control at 70 g/ha [2, 17]: 0 to 29%; pest or weed control at 140 g/ha [2, 17]: 0 to 29%; melting point: 163 to 165 °C
COC(=O)c1nc(-c2ccc(C(F)(F)F)nc2)c(C)c(N)c1Cl [Compound 32]	45 to 59%	85 to 94%	0 to 29%	0 to 29%	60 to 74%	75 to 84%	85 to 94%	85 to 94%	0 to 29%	0 to 29%	95 to 100%	95 to 100%	45 to 59%	75 to 84%	95 to 100%	95 to 100%	75 to 84%	75 to 84%	85 to 94%	85 to 94%	pest or weed control at 70 g/ha [2, 13]: 0 to 29%; pest or weed control at 140 g/ha [2, 13]: 0 to 29%; pest or weed control at 70 g/ha [2, 14]: 85 to 94%; pest or weed control at 140 g/ha [2, 14]: 85 to 94%; pest or weed control at 70 g/ha [2, 15]: 60 to 74%; pest or weed control at 140 g/ha [2, 15]: 75 to 84%; pest or weed control at 70 g/ha [2, 16]: 60 to 74%; pest or weed control at 140 g/ha [2, 16]: 60 to 74%; pest or weed control at 70 g/ha [2, 17]: 60 to 74%; pest or weed control at 140 g/ha [2, 17]: 60 to 74%; melting point: 145 °C
COC(=O)c1nc(-c2c(F)cc(Cl)c(F)c2C)cc(N)c1Cl [Compound 38, methyl 4-amino-3-chloro-6-(4-chloro-3,6-difluoro-2-methylphenyl)picolinate]	95 to 100%	95 to 100%	95 to 100%	95 to 100%	95 to 100%	95 to 100%	85 to 94%	95 to 100%	30 to 44%	45 to 59%	75 to 84%	95 to 100%	75 to 84%	85 to 94%	0 to 29%	0 to 29%	0 to 29%	0 to 29%	0 to 29%	0 to 29%	pest or weed control at 70 g/ha [2, 13]: 0 to 29%; pest or weed control at 140 g/ha [2, 13]: 0 to 29%; pest or weed control at 70 g/ha [2, 14]: 0 to 29%; pest or weed control at 140 g/ha [2, 14]: 0 to 29%; pest or weed control at 70 g/ha [2, 15]: 0 to 29%; pest or weed control at 140 g/ha [2, 15]: 0 to 29%; pest or weed control at 70 g/ha [2, 16]: 45 to 59%; pest or weed control at 140 g/ha [2, 16]: 60 to 74%; pest or weed control at 70 g/ha [2, 17]: 0 to 29%; pest or weed control at 140 g/ha [2, 17]: 0 to 29%; melting point: 144 to 146 °C
